Reference: article PMC12591484 (PLOS One, 2025)
Marks after values point to notes of the source that are not given here.

Key:
[1] = target: T1, α1β3γ2S301C GABAA receptors (Homo sapiens, UniProt P14867+P18507+P28472, S340C); assay: Drug protection from pCMBS modification (SCAMP); type: cell-based; settings: γ2S301C (γ+); pCMBS 100 µM x 90 s; […] etomidate, 8 µM R-mTFD-MPAB or 10 µM pTFD-di-iPr-BnOH; n = 5
T1 construct: expressed in transfected cells; host or cells: Xenopus oocytes injected with capped mRNAs mixed 1α:1β:5γ
T1 sequence (P14867 28-456): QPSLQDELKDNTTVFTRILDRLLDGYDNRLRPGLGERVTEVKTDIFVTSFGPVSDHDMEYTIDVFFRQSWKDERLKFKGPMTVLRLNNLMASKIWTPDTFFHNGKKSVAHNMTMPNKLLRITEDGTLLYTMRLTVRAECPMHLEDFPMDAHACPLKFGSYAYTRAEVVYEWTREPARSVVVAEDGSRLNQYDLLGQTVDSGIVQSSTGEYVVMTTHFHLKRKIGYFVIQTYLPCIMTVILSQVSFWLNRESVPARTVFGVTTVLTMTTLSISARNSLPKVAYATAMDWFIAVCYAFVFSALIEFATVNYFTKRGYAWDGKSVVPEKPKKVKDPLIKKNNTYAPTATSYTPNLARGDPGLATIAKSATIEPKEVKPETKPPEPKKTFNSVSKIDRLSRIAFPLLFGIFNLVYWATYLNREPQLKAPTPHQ
T1 sequence (P28472 26-473): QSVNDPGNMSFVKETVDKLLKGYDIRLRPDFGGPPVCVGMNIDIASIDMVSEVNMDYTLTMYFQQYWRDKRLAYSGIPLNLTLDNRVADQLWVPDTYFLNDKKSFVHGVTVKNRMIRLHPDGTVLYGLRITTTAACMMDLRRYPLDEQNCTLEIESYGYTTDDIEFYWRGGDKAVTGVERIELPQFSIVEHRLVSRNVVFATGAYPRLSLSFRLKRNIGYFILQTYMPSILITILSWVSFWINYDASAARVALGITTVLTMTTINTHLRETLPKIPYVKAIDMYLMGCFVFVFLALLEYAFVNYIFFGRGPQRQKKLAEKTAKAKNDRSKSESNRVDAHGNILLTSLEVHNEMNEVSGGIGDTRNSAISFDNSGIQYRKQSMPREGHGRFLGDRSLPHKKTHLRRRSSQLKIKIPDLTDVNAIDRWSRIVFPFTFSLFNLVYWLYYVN
T1 sequence (P18507 40-475 S340C): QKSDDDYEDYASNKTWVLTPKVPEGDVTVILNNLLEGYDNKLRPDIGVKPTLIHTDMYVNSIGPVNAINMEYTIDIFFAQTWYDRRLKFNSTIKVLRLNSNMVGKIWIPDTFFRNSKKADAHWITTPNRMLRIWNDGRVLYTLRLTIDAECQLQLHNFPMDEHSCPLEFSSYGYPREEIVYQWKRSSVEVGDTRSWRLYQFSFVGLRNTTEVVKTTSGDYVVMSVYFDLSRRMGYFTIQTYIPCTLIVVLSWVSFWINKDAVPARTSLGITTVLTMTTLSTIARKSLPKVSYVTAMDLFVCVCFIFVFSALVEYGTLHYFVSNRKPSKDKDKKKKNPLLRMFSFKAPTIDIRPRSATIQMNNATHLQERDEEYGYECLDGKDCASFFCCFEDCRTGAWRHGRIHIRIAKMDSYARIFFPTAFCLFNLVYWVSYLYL
Experimental: (§1) Experiments were performed in ND-96 buffer at room temperature (20–22°C). Oocytes were placed in a low-volume (30µl) flow chamber and impaled with borosilicate microelectrodes filled with 3M KCl (resistance 0.5–3 MΩ) and voltage-clamped at −50 mV (model OC-725C; Warner Instruments, Hamden, CT, USA). Superfusate solutions in ND-96 were delivered at 2 ml/min from glass syringe reservoirs via computer-controlled valves (VC-8; Warner Instruments), a micro-manifold (ALA-VM8; ALA Scientific Instruments, Farmingdale, NY, USA), and PTFE tubing. Currents were digitized at 200 Hz on a computer running ClampEx v8.0 software (Molecular Devices, San Jose, CA, USA). Digitized traces were filtered with a 10-Hz low-pass Bessel function, leak corrected and analyzed for peak amplitude off-line using Clampfit v8 software (Molecular Devices).
(§2) Drug protection from pCMBS modification was assessed under pCMBS exposure conditions that produced approximately half of the maximal modification ratio for each mutant receptor, and a least a value of 3. This approach balanced the magnitude of functional modification signals (smaller with less pCMBS exposure) against the challenge of using a reversibly bound ligand to competitively block an irreversible covalent cysteine-modifying reaction. […] Each oocyte was used in a single SCAMP experiment. […] Etomidate was used as a positive control for anesthetic protection in α1M236C and β3M286C mutants and as a negative control in α1S270C, α1A291C, β3L231C, γ2S301C, γ2I242C, and γ2L246C mutants. R-mTFD-MPAB was used as a positive control in α1S270C, α1A291C, β3L231C, and γ2LS301C mutants and as a negative control in α1M236C and β3M286C mutants. For each cysteine mutant and protective drug combination, five oocytes were studied.
(§3) Non-linear least squares fits and statistical analyses were performed in Prism 10.4.0. (GraphPad Software, San Diego, CA, USA). […] Protection (steric inhibition of pCMBS modification) was inferred when anesthetics produced significant reductions in modification ratios relative to control (no anesthetic) values. The statistical significance threshold was p < 0.05.

[2] = target: T2, α1β3γ2L246C GABAA receptors (Homo sapiens, UniProt P14867+P18507+P28472, L285C); design: key: +: Mutant-function studies are deemed positive when bulky mutations (mostly tryptophans) at the site significantly reduce positive modulation by anesthetics; -: Negative results are indicated by “–“ symbols; settings: previously reported; cited from earlier work
T2 construct: expressed in transfected cells; host or cells: Xenopus oocytes injected with capped mRNAs mixed 1α:1β:5γ

[3] = target: T1, α1β3γ2S301C GABAA receptors; assay: Drug protection from pCMBS modification (SCAMP); type: cell-based; design: key: +: SCAMP is Substituted Cysteine Modification and Protection and is positive when adding anesthetic to cysteine modifier significantly reduces persistent post-exposure effects due to covalent modification; -: Negative results are indicated by “–“ symbols; settings: results of this study (*)
Experimental: as §1, §2, §3

[4] = target: T3, α1M236Cβ3γ2L GABAA receptors (Homo sapiens, UniProt P14867+P18507+P28472, M263C); assay: Drug protection from pCMBS modification (SCAMP); type: cell-based; design: key: +: SCAMP is Substituted Cysteine Modification and Protection and is positive when adding anesthetic to cysteine modifier significantly reduces persistent post-exposure effects due to covalent modification; -: Negative results are indicated by “–“ symbols; settings: results of this study (*); some cells also cite [9]
T3 construct: expressed in transfected cells; host or cells: Xenopus oocytes injected with capped mRNA, 1α:1β:5γ
Experimental: as §1, §2, §3

T2 sequence (P18507 40-475 L285C, one chain of several): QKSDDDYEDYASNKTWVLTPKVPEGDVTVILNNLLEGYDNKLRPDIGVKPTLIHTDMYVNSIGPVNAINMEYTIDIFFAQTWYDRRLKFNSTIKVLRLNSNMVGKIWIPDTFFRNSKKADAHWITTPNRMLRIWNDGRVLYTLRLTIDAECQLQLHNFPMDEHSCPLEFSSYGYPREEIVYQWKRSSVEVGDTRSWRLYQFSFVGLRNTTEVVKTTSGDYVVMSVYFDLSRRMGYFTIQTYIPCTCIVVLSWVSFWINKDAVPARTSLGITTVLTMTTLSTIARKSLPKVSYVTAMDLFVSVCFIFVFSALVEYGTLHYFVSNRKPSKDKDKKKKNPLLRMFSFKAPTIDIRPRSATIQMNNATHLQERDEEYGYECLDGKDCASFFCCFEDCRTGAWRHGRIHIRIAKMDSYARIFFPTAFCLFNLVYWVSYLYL
T3 sequence (P14867 28-456 M263C, one chain of several): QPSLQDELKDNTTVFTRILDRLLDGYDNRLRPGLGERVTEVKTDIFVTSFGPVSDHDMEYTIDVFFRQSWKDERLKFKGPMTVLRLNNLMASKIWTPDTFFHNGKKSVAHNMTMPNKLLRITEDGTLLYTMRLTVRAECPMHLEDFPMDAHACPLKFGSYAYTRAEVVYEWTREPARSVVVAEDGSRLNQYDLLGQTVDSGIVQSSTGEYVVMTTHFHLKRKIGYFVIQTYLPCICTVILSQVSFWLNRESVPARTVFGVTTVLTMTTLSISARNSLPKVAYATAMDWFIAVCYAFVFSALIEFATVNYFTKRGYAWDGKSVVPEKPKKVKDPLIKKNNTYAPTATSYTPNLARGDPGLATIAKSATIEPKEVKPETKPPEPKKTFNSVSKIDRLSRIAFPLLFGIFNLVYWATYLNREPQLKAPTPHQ
T3 sequence (P18507 40-475, one chain of several): as the sequence (P18507 40-475 L285C, one chain of several) above, with C246L counted along it

## C=CCC1(c2cccc(C3(C(F)(F)F)N=N3)c2)C(=O)NC(=O)N(C)C1=O (stereo not shown) [R-mTFD-MPAB, R-5-allyl-1-methyl-5-(m-trifluoromethyl-diazirynylphenyl) barbituric acid]
[1]
  protection from pCMBS modification (significant reduction of modification ratio vs control, p < 0.05): protection was inferred
[2]
  SCAMP result, γ2– (M1) L246: -^[9]
[3]
  SCAMP result, γ2+ (M2, M3) S301: +*

## CCOC(=O)c1cncn1[C@H](C)c1ccccc1 [etomidate, R-etomidate]
[4]
  SCAMP result, α1– (M1) M236: +^[9], *
